{"source": "paper PMC6195743", "about": "“Renewable production of high density jet fuel precursor sesquiterpenes from Escherichia coli” (Biotechnology for Biofuels, 2018)", "test_in_all_cases": "GC-MS of decane overlay from E. coli expressing the synthase", "type_in_all_cases": "cell-based", "key": {"[1]": {"molecular_target": "T1, pentalenene synthase (PentS; codon-optimized coPentS) (Streptomyces exfoliatus, UniProt Q55012)", "T1 construct": "gene penA; codon-optimized gene, untagged, plasmids pTrc99a / pBbE7a / prstA, expressed in E. coli DH1; also in S. cerevisiae EPY300", "T1 sequence (Q55012 2-337)": "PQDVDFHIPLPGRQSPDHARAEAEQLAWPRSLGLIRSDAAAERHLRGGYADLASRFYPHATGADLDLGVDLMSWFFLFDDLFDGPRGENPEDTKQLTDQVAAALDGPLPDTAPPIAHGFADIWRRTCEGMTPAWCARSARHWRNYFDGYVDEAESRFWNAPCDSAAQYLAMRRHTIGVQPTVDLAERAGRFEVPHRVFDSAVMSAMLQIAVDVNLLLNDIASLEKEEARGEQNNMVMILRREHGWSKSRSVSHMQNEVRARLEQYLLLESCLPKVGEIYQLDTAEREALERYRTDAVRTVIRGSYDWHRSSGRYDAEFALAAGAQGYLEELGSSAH", "conditions": "product pentalenene (single product); endogenous FPP supply, no FPP added"}, "[2]": {"molecular_target": "T2, epi-isozizaene synthase (EIZS; codon-optimized coEIZS) (Streptomyces coelicolor, UniProt Q9K499)", "T2 construct": "gene cyc1; codon-optimized gene, untagged, plasmids pTrc99a / pBbE7a / prstA, expressed in E. coli DH1", "T2 sequence (Q9K499 1-361)": "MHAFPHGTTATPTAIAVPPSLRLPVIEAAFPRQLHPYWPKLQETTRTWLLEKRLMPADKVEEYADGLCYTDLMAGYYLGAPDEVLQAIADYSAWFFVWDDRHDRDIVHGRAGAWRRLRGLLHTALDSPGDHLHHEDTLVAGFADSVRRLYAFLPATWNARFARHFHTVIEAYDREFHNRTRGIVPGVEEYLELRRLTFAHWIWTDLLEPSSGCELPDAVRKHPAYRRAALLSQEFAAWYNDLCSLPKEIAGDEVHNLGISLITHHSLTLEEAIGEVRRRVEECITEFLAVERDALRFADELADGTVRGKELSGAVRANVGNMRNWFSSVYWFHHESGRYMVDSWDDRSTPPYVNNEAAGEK", "conditions": "product epi-isozizaene (single product); endogenous FPP supply, no FPP added"}, "[3]": {"molecular_target": "T3, α-isocomene synthase (MrTPS2; codon-optimized coMrTPS2) (Matricaria chamomilla, UniProt I6R4V5)", "T3 construct": "codon-optimized gene, untagged, plasmids pTrc99a / pBbE7a / prstA, expressed in E. coli DH1", "T3 sequence (I6R4V5 1-546)": "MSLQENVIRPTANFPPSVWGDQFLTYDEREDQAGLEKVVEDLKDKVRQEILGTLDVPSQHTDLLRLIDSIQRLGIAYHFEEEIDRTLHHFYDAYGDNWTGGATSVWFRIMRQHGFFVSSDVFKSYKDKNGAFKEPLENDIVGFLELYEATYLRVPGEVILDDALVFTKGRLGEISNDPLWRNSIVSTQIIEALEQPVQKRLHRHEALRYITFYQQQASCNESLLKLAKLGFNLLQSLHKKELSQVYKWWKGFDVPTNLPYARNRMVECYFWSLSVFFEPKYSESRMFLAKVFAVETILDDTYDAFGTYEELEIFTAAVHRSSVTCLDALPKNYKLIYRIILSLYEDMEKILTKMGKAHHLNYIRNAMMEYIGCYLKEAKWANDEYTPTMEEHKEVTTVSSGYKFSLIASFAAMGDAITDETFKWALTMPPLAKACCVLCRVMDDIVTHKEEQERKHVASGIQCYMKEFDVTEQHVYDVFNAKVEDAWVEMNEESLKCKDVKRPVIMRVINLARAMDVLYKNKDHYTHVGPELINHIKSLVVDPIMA", "conditions": "main product alpha-isocomene with silphinene, modephene, beta-isocomene, caryophyllene, alpha-humulene; endogenous FPP supply, no FPP added"}}, "data": [{"smiles": "CC(C)=CCC/C(C)=C/CC/C(C)=C/COP(=O)(O)OP(=O)(O)O", "note": "[farnesyl diphosphate]", "values": [{"measurement": "GC-MS of decane overlay from E. coli expressing the synthase", "setting": "[1]", "value": "cultures expressing coEIZS and coPentS produced single products"}, {"measurement": "GC-MS of decane overlay from E. coli expressing the synthase", "setting": "[2]", "value": "cultures expressing coEIZS and coPentS produced single products"}, {"measurement": "GC-MS of decane overlay from E. coli expressing the synthase", "setting": "[3]", "value": "culture expressing coMrTPS2 produced a broad spectrum of compounds, including α-isocomene"}]}]}
